What was measured:
Assay type in all cases: functional
Staphylococcus aureus = assay: Antibacterial activity against Staphylococcus aureus incubated for 16 to 18 hrs by broth microdilution assay
[1] = test system: Mycolicibacterium smegmatis; assay: Antimycobacterial activity against Mycobacterium smegmatis incubated for 48 hrs by resazurin microplate assay
Escherichia coli = assay: Antibacterial activity against Escherichia coli incubated for 16 to 18 hrs by broth microdilution assay
[2] = test system: Mycolicibacterium smegmatis; assay: Potentiation of erythromycin-induced antimycobacterial activity against Mycobacterium smegmatis assessed as erythromycin MIC90 at 25 ug/ml after 48 hrs by resazurin microplate assay (reference value: 10 ug/ml)
[3] = test system: Mycolicibacterium smegmatis; assay: Potentiation of streptomycin-induced antimycobacterial activity against Mycobacterium smegmatis assessed as streptomycin MIC90 at 25 ug/ml after 48 hrs by resazurin microplate assay (reference value: 0.25 ug/ml)
[4] = test system: Mycolicibacterium smegmatis; assay: Potentiation of erythromycin-induced antimycobacterial activity against Mycobacterium smegmatis assessed as reduction in erythromycin MIC90 at 25 ug/ml after 48 hrs by resazurin microplate assay relative to control
[5] = test system: Mycolicibacterium smegmatis; assay: Potentiation of kanamycin-induced antimycobacterial activity against Mycobacterium smegmatis assessed as kanamycin MIC90 at 25 ug/ml after 48 hrs by resazurin microplate assay (reference value: 2.5 ug/ml)
[6] = test system: Mycolicibacterium smegmatis; assay: Potentiation of rifampicin-induced antimycobacterial activity against Mycobacterium smegmatis assessed as rifampicin MIC90 at 25 ug/ml after 48 hrs by resazurin microplate assay (reference value: 8 ug/ml)
[7] = test system: Mycolicibacterium smegmatis; assay: Potentiation of vancomycin-induced antimycobacterial activity against Mycobacterium smegmatis assessed as vancomycin MIC90 at 25 ug/ml after 48 hrs by resazurin microplate assay (reference value: 0.5 ug/ml)
[8] = test system: Mycolicibacterium smegmatis; assay: Potentiation of isoniazid-induced antimycobacterial activity against Mycobacterium smegmatis assessed as isoniazid MIC90 at 25 ug/ml after 48 hrs by resazurin microplate assay (reference value: 200 ug/ml)

SMILES | MIC (Staphylococcus aureus) [µg/mL] | MIC90 [1] [µg/mL] | MIC (Escherichia coli) [µg/mL] | MIC90 [2] [µg/mL] | MIC90 [3] [µg/mL] | MIC90 [5] [µg/mL] | MIC90 [6] [µg/mL] | MIC90 [7] [µg/mL] | MIC90 [8] [µg/mL] | fold change (FC) [4]
C/C=C1\COC(OC)C2=C1CCOC2=O (centres undefined) | > 128 | > 25 | > 128 | – | – | – | – | – | – | –
C[C@H]1[C@@H]2C(=O)OCC[C@@H]2C[C@H]1O | > 128 | > 25 | > 128 | – | – | – | – | – | – | –
C[C@@H]1OCC2=C(CCOC2=O)[C@H]1CO | > 128 | > 25 | > 128 | 1.25 | 0.125 | 1 | 8 | 0.125 | 100 | 8
O=Cc1cccc2c1[C@H]1[C@@H]3OC(=O)c4cccc(C=O)c4[C@@H]3[C@H]1OC2=O | > 128 | > 25 | > 128 | – | – | – | – | – | – | –

More lines, main results first:

MIC (Staphylococcus aureus) [µg/mL] | MIC90 [1] [µg/mL] | MIC (Escherichia coli) [µg/mL] | MIC90 [2] [µg/mL] | MIC90 [3] [µg/mL] | MIC90 [5] [µg/mL] | MIC90 [6] [µg/mL] | MIC90 [7] [µg/mL] | MIC90 [8] [µg/mL] | SMILES | fold change (FC) [4]
> 128 | > 25 | > 128 | – | – | – | – | – | – | C[C@@H]1OC=C2C(=O)OCC[C@H]2[C@@H]1C(=O)O | –
> 128 | > 25 | > 128 | 0.625 | 0.125 | 1 | 8 | 2.5 | 100 | C[C@@H]1Cc2cccc(O)c2C(=O)O1 [(-)-(R)-MELLEIN] | 16
> 128 | > 25 | > 128 | 2.5 | 0.125 | 1 | 8 | 2.5 | 100 | COc1cc(/C=C/C(=O)OCCCCCCCCCCCCCCCCCCCCCCCCCCCCCC=O)ccc1O | –
> 128 | > 25 | > 128 | – | – | – | – | – | – | C[C@@H]1OCC2=C(CCOC2=O)[C@@H]1CO | –
> 128 | > 25 | > 128 | 1.25 | 0.125 | 1 | 8 | 2.5 | 100 | O=Cc1cccc2c(=O)occc12 | 8
